Patent US20080268435A1, “Brca1 Markers” (THE QUEEN'S UNIVERSITY OF BELFAST, priority 2004, published 2008)

Legend:
Type in all cases: cell-based
[1] = test system: HP1 and MDA-MB-231-zeo cell lines; test: 72 hour dose inhibition study of etoposide, psoriasin-expressing HP1 vs empty vector MDA-MB-231-zeo cells; conditions: HP1 (exogenous psoriasin) vs MDA-MB231-zeo vector control; 72 h continuous exposure; from IC50 values; three independent experiments
Procedure: (§1) Cells were either untreated (lanes 1 and 2) or treated with 1 μM etoposide for 24 hours. The blot was reprobed for GAPDH as a loading control, (b) A Western blot evaluating the expression of psoriasin protein in the HCC-EV1 cell line (lanes 1 and 3) and the HCC-BR116 cell line (lanes 2 and 4). Cells were either untreated (lanes 1 and 2) or treated with 1 μM etoposide for 24 hours. The blot was reprobed for GAPDH as a loading control, (c) A 72 hour dose inhibition study investigating the effect of psoriasin expression on the response to etoposide in the HP1 and MDA-MB-231-zeo cell lines. The IC50 values were calculated from the sigmoidal dose response curves. […] (Symbols □=HP1 cell line (psoriasin expression) ▴=MDA-MB-231-zeo (empty vector control), (d) A 72 hour dose inhibition study investigating the effect of loss of psoriasin expression on the response to etoposide in the HCCEV1 cell line. The IC50 values were calculated from the sigmoidal dose response curves. The results represent three independent experiments. (Symbols ▴=siRNA to psoriasin □=scrambled sequence). […]
The HCC-EV1 cell line was treated with scrambled or psoriasin specific siRNA and after 24 hours seeded at 100,000 cells per well on 24 well tissue culture plates. […] After 72 h of continuous drug exposure, cells were detached with trypsin, and counted using a Z2 particle and size analyzer (Coulter, Miami, Fla.). […]

[2] = test system: HCC-EV1 cell line; test: 72 hour dose inhibition study of etoposide in HCC-EV1 cells, psoriasin siRNA vs scrambled sequence; conditions: BRCA1 deficient HCC-EV cells, 72 h exposure, from IC50 values, three independent experiments
Procedure: as §1
For drug sensitivity assays HCC-EV and HCCBR cells were seeded onto 24-well tissue culture plates at a density of 100,000 cells per well. […] After 72 hours of continuous drug exposure, cells were detached with trypsin and counted using a Z2 particle and size analyser (Coulter, Miami, Fla.). […]

[3] = test system: psoriasin (S100A7) mRNA and protein in HCC-EV1 and HCC-BR116 cells; test: Northern and Western blot of psoriasin expression after etoposide treatment; conditions: BRCA1 deficient cells (HCC-EV1), 1 μM etoposide for 24 hours
Procedure: Cells were either untreated (lanes 1 and 2) or treated with 1 μM etoposide for 24 hours. The blot was reprobed for GAPDH as a loading control, (b) A Western blot evaluating the expression of psoriasin protein in the HCC-EV1 cell line (lanes 1 and 3) and the HCC-BR116 cell line (lanes 2 and 4). Cells were either untreated (lanes 1 and 2) or treated with 1 μM etoposide for 24 hours. The blot was reprobed for GAPDH as a loading control, (c) A 72 hour dose inhibition study investigating the effect of psoriasin expression on the response to etoposide in the HP1 and MDA-MB-231-zeo cell lines. The IC50 values were calculated from the sigmoidal dose response curves. The results represent three independent experiments. (Symbols □=HP1 cell line (psoriasin expression) ▴=MDA-MB-231-zeo (empty vector control), (d) A 72 hour dose inhibition study investigating the effect of loss of psoriasin expression on the response to etoposide in the HCCEV1 cell line. The IC50 values were calculated from the sigmoidal dose response curves. The results represent three independent experiments. (Symbols ▴=siRNA to psoriasin □=scrambled sequence). […]

COc1cc([C@@H]2c3cc4c(cc3[C@@H](O[C@@H]3O[C@@H]5CO[C@@H](C)O[C@H]5[C@H](O)[C@H]3O)[C@H]3COC(=O)[C@H]23)OCO4)cc(OC)c1O [etoposide]
increase in sensitivity to etoposide induced by expression of psoriasin [1]: 4000 fold | increase in resistance to etoposide induced by inhibition of endogenous psoriasin [2]: greater than 20 fold | expression of psoriasin mRNA and protein following etoposide treatment [3]: enhanced expression
